Our source for the RP-LC retention time values is the METLIN SMRT retention time set (Domingo-Almenara et al. 2019).

The nature of the data set: gradient 5% acetonitrile 3 min, to 50% in 2 min, to 85% in 15 min, held 3 min, 100 µL/min. To be noted: column: Zorbax Extend-C18 2.1 x 50 mm; eluents: water / acetonitrile, 0.1% formic acid. Summed up: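 The system's dead and dwell volumes were 40 μL and 900 μL, with a Zorbax Extend-C18 column (2.1 × 50 mm, 1.8 μm) run at 100 μL/min in water and acetonitrile containing 0.1% formic acid each. Pure standards were analyzed in mixtures of ~100 molecules by HPLC–quadrupole time-of-flight mass spectrometry in positive and negative ionization mode. Retention time was assigned from computationally picked, manually inspected adduct peaks.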
`Cn1c(=O)c(NCc2cccc(C(F)(F)F)c2)nc2ccncc21`: the RP-LC retention time is 658 s. Molecule `CCOc1ccccc1NC(=O)N1CCC2(C1)C(=O)N(C)c1ccccc12` (stereo not given) came in with an RP-LC retention time of 902 s. In turn, `c1ccc(-c2ccc(C(c3ccccc3)n3ccnc3)cc2)cc1` (stereo not given) came in with an RP-LC retention time of 906 s. `Cc1ccc(C(=O)N2CCC[C@H]2c2nc(-c3ccccc3)n[nH]2)s1` registered an RP-LC retention time of 740 s. `Cc1ccc(CNC(=O)Cn2nc3cc(-c4ccccc4)nc(C)n3c2=O)cc1`: the RP-LC retention time is 930 s. `CCCc1c(C(=O)O)nnn1-c1ccc(OC)c(Cl)c1` showed an RP-LC retention time of 773 s.

In turn, `Cc1ccc(N2CCN(C(=O)c3cn4nc(Cl)ccc4n3)CC2)cc1` gave an RP-LC retention time of 823 s. With `O=C(NCc1ccccc1F)c1cn(-c2cc(N3CCOCC3)ncn2)cn1` the figure was 758 s.

`O=C(CCc1ccccc1)N1CCC(n2nnc3cc(F)ccc3c2=O)CC1` gave an RP-LC retention time of 879 s. Consider `COc1ccc(-c2nc(C)cc(C)c2CNS(=O)(=O)c2ccccc2C)cc1`, for which the RP-LC retention time turned out to be 658 s. In turn, `Cc1ccc(F)c(NC(=O)c2cnc3c(c2)c(=O)n(C)c(=O)n3-c2ccccc2)c1` returned an RP-LC retention time of 904 s.

Turning to `COc1ccc(-c2nc3ccc(Br)cn3c2Nc2ccc(C)cc2)cc1O`, the RP-LC retention time worked out at 742 s. Molecule `COc1cc2c(=O)c(C(=O)c3ccncc3)cn(CC(=O)Nc3ccc(F)cc3F)c2cc1Cl` displayed an RP-LC retention time of 711 s.

For `CCn1nc(CNC(=O)C(C)Oc2ccccc2OC)c2ccccc21` (stereo not given), the RP-LC retention time is 810 s.

Regarding `COCCCNC(=O)c1cc2c(n(-c3ccc(C(F)(F)F)cc3)c1=O)CCCC2=O`, the RP-LC retention time was determined as 823 s. As for `O=C(COc1ccc(F)cc1)N1CCN(c2ccc(=O)n(-c3ccc(Cl)cc3)n2)CC1`, the figure is 874 s; as for `Cc1nn(-c2ccccc2)c2nc(C3CC3)cc(C(=O)NCc3ccco3)c12`, 1100 s. With `COc1ccc(OC)c(C(C)NC(=O)C2CCCN(c3nccnc3Sc3ccc(C)cc3)C2)c1` (stereo not given) the figure was 1150 s; with `COC(=O)c1ccc(NC(=O)N(C)c2ccccc2)cc1`, 771 s; with `O=C(c1nnn(-c2ccccc2Cl)c1-c1ccncc1)N1CCN(c2ccccn2)CC1`, 973 s. In turn, `CC(C)CC(C(=O)N1CCN(c2ccccn2)CC1)N1Cc2ccccc2C1=O` (stereo not given) displayed an RP-LC retention time of 650 s. With `COC(=O)c1sccc1NC(=O)N1CCCC1c1nc(-c2ccccc2)no1` (stereo not given) the figure was 1050 s; with `CN(C)C(=O)c1cc(N(C)C)nc2c(Cl)cccc12`, 745 s. Consider `CCOCC(=O)N1CCC(N2CC(OCC3CC3)C23CCCCC3)CC1` (stereo not given), for which the RP-LC retention time came to 644 s. `Cc1ccc(N2CCC(NC(=O)c3ccc(F)cc3)C2=O)cc1C` (stereo not given) had an RP-LC retention time of 828 s. As for `Cc1ccc2[nH]c(C(=O)N3CCOCC3)cc2c1`, the figure is 582 s; as for `COCCCNC(=O)c1ccc2c(c1)N=C(C)c1cc(Cl)ccc1S2`, 914 s.

With `CCn1cc(-c2nc(C)c(C(=O)Nc3ccccc3OC)s2)c2cccnc21`, the RP-LC retention time is 1120 s. As for `COCCN(CCOC)C(=O)Cc1csc(NC(=O)Nc2ccc(Cl)cc2)n1`, the figure is 733 s; as for `CC(C)(C)NC(=O)c1ccc(-n2cc(CNC(=O)C3CC3)cn2)cc1`, 711 s; as for `CCSc1nnc(NC(=O)C2CCCN(c3ccc(-c4ccco4)nn3)C2)s1` (stereo not given), 672 s. With `Cc1cc(C)cc(C(=O)N2CCCC(C(=O)Nc3c(C)cc(C)cc3C)C2)c1` (stereo not given) the figure was 983 s. Consider `O=C(Cc1cccn1-c1ccc(Cl)cc1)NCCCN1CCOCC1`, for which the RP-LC retention time was 625 s. With `CC1(C)C(=O)N(CC(=O)Nc2ccc(F)cc2F)c2ccccc21` the figure was 871 s. With `CCc1noc(NC(C)=O)c1-c1ccc(OC)c(S(=O)(=O)Nc2ccc(C)c(C)c2)c1` the figure was 846 s; with `COCC(=O)Nc1ccc2nc(N3CCN(C4CCCCC4)CC3)cc(C(=O)O)c2c1`, 558 s. Molecule `CCCN(CCC)C(=O)C1CCN(S(=O)(=O)c2ccc3c(c2)CCCC(=O)N3)CC1` came in with an RP-LC retention time of 694 s. In turn, `CCc1noc(NC(C)=O)c1-c1ccc(OC)c(S(=O)(=O)Nc2ccc(C)cc2)c1` showed an RP-LC retention time of 784 s.

For `COc1cc(OC)c(NS(=O)(=O)c2cc(-c3cc(C(F)(F)F)[nH]n3)sc2C)cc1Cl`, the RP-LC retention time came out at 1020 s.

As to `O=C(Nc1nc(-c2ccc(-c3ccccc3)cc2)cs1)C1CCCC1`, the RP-LC retention time is 1260 s. With `O=C(NCC1CCCO1)c1ccc(NC(=O)C2CCC2)cc1N1CCCCC1` (stereo not given) the figure was 617 s. `COc1ccc2[nH]cc(CCNCc3ccc(Br)cc3)c2c1` came in with an RP-LC retention time of 764 s. Molecule `CC(C)n1cnnc1CC1CCN(C(=O)Nc2ccc3c(c2)OCCO3)CC1` displayed an RP-LC retention time of 625 s. Molecule `O=C(C1CCN(c2nnc(-c3ccccc3)o2)CC1)N1CCOCC1` had an RP-LC retention time of 668 s. As for `O=[N+]([O-])c1ccc(-c2csc(Nc3ccc4c(c3)OCO4)n2)cc1`, the figure is 1110 s; as for `CN(CCc1noc(COc2ccc(F)cc2)n1)C(=O)Nc1cccc(Br)c1`, 971 s.

Molecule `COc1ccccc1OCC(=O)Nc1ccc2c(c1)N(C(=O)c1ccco1)CCC2` came in with an RP-LC retention time of 881 s. As for `O=C(Cn1c(=O)cc(-c2nc(C3CC3)no2)c2ccccc21)Nc1ccc2c(c1)OCCO2`, the figure is 906 s; as for `CN1C(=O)c2cc(C(=O)NC3CCCCC3)nn2CC1(C)C(=O)NCc1ccc(F)cc1` (stereo not given), 776 s; as for `Cc1oc2c(c1C(=O)NCCc1ccccc1Cl)C1=NCCN1C=N2`, 651 s. In the case of `O=S(=O)(c1cccnc1)N1CCC(c2nnc(-c3ccc(F)cc3)o2)CC1`, the RP-LC retention time is 734 s. Molecule `CC1CCN(c2ncc3c(n2)CCC(C(=O)NCc2nc4ccccc4n2C)C3)CC1` (stereo not given) came in with an RP-LC retention time of 625 s.

`CCc1noc([C@@H]2CC(F)(F)CN2C(=O)c2cn(C)cn2)n1` came in with an RP-LC retention time of 644 s. As for `CCc1nc2sc(C(C)C)nn2c1S(=O)(=O)NC1CCCCC1`, the figure is 1020 s.

Turning to `CCc1ccccc1N(C)S(=O)(=O)c1ccccc1-c1nc(-c2ccccc2)no1`, the RP-LC retention time is 1270 s. As for `COc1cccc(CNC(=O)Cn2c(=O)c3cc(C4CC4)nn3c3ncccc32)c1`, the figure is 742 s; as for `Oc1ccc(-c2nc3ncccn3c2Nc2ccc3c(c2)OCCO3)cc1`, 610 s.

`CCCN(CC1CCOC1)C(=O)c1ccccc1Cl` (stereo not given) came in with an RP-LC retention time of 788 s. As to `CCCCCc1cc(O)c2c(c1)OC(C)(C)[C@@H]1CCC(C(=O)O)=CC21` (stereo not given in full), the RP-LC retention time is 1130 s. As for `Cc1cc(C)cc(C(=O)NCCc2nc3cccnc3n2C(C)C)c1`, the figure is 744 s; as for `CC(C)Cc1ccc(C(C)C(=O)N2CC(=O)Nc3ccccc32)cc1` (stereo not given), 968 s; as for `CCOc1nc2ccccc2nc1N1CCCC(C(=O)N2CCN(c3ccccc3)CC2)C1` (stereo not given), 1280 s.

`Cc1nnc2n1CCC(N(C)C(=O)Cc1cccs1)CC2` (stereo not given) returned an RP-LC retention time of 571 s. Molecule `CCC(=O)N1N=C(c2cccs2)CC1c1cccs1` (stereo not given) came in with an RP-LC retention time of 880 s. As for `CCn1cc(-c2nc(C(=O)NCc3ccc(F)c(Cl)c3)cs2)c2cccnc21`, the figure is 1050 s; as for `O=S(=O)(c1ccccc1)N1CC(c2nnc(-c3ccncc3)o2)C2(CCOCC2)C1` (stereo not given), 660 s. With `COc1ccc(NC(=O)C2CCN(S(C)(=O)=O)c3ccccc3O2)cc1` (stereo not given) the figure was 824 s; with `COc1ccc(-c2ncc(C(=O)O)c(=O)[nH]2)cc1OC`, 591 s; with `O=C(c1ccc2c(c1)OCO2)N1CCC(N2C[C@H]3C[C@H](C2)[C@H]2CCCC(=O)N2C3)CC1`, 561 s. As for `Cc1nnc(-c2ccc3ccn(CC(=O)NCCc4ccc(S(N)(=O)=O)cc4)c3c2)o1`, the figure is 648 s; as for `Cc1ccc(-c2ncccc2CNS(=O)(=O)c2cccc(Cl)c2)cc1`, 766 s; as for `O=C(NCc1ccsc1)NC(c1ccccc1)c1ccccc1`, 863 s.

The molecule `CCCCOc1ccc(-c2cc3c(N4CCN(C)CC4)nccn3n2)cc1` gave an RP-LC retention time of 754 s. With `COc1ccc(-c2cc(N3CCN(C(=O)NCCC(C)C)CC3)ncn2)cc1` the figure was 670 s; with `Cc1ccc(-n2ccnc2SCc2nc(-c3ccc(Br)cc3)no2)cc1`, 1090 s. Turning to `COc1ccc(OC)c(S(=O)(=O)NC2CCc3nn(CC4CC4)c(=O)n3CC2)c1` (stereo not given), the RP-LC retention time came to 707 s.

`CCN1C(=O)COc2ccc(-c3noc(-c4ccc(OC)cc4OC)n3)cc21` came in with an RP-LC retention time of 1040 s. With `Cc1nc(C)c(C(=O)Nc2nc(-c3ccc(Cl)cc3)cs2)s1` the figure was 992 s; with `N#Cc1ccc(-c2nc(-c3ccc4c(c3)ncn4CCN3CCOCC3)no2)cc1`, 624 s. Consider `COc1ccc(N2C=C(C(=O)N3CCCCC3)S(=O)(=O)c3ccccc32)cc1`, for which the RP-LC retention time stood at 859 s.
